From US11395867B2, “Degradable removable implant for the sustained release of an active compound” (Janssen Sciences Ireland Unlimited Company, priority 2009, dated 2022)
Several values for one entry are separate records, joined by “and”; a condition that tells them apart may be missing. Identical values can stand only once.

Tests used:
[1] = In vivo testing of laser drilled melt extruded tube containing two sets of microparticles, plasma concentrations; settings: rat, subcutaneous laser drilled extruded tube implant, TMC278 139 mg/kg, compound 1 64 mg/kg, individual animals 1-4
Experimental: Tubes with inner diameter of 4.5 mm were extruded from polydioxanone (IVHFIP=1.99 dl/g) using a ¾ inch single screw extruder fitted with a tube die. The dimensions of the tube were monitored using an in-line laser diameter measuring system and maintained using a puller. Following the extrusion the tubes were laser drilled. In preparation for the laser drilling a mask design was prepared that located the holes 260 microns apart from one another. Scanning electron microscopy was used to size the inner and outer diameter of the holes. […] The microparticles were prepared as described in Example 9. Approximately 133 mg of the microparticle mixture was introduced into the tubes.
The prepared tubes were implanted into the subcutaneous space on the back of four male Sprague-Dawley rats weighing between 250-350 grams. The dose of TMC278 was 139 mg/kg and the dose of compound 1 was 64 mg/kg. The tail vein was sampled at pre-determined time points. Blood samples were immediately centrifuged to extract the plasma, and plasma was analyzed for compound 1 and TMC278 by LC/MS/MS. The lower limit of quantitation for TMC278 and compound 1 was 0.4 ng/ml and 2.0 ng/ml, respectively.

[2] = In vivo testing of electrostatically spun tube containing two sets of microparticles, plasma concentrations; design: species or system Sprague-Dawley rats; settings: rat, subcutaneous electrospun tube implant, TMC278 139 mg/kg, compound 1 64 mg/kg, individual animals 1-4
Experimental: Tubes were electrostatically spun from a 100 mg/ml polydioxanone (IVHFIP=1.99 dl/g) hexafluoroisopropanol solution. A 4 mm mandrel was used to provide a consistent inner diameter of 4 mm. The rotational speed of the mandrel was 400 rpm, the charging voltage range was 20/−10 kV, and the pump flow rate was 10 ml/hour. The resulting wall thickness was 500 microns. Fiber diameters were 1-2 microns and the average pore size formed from the network of fibers was 20 microns as determined by Scanning Electron Microscopy.
The microparticles were prepared by the spinning disc method using a polymer/acetone solution with a concentration ranging from 3-4% (w/w). Two sets of microparticles were prepared. The target composition of one set was 70% (w/w) TMC278 and 30% (w/w) PLGA 50/50 (Lakeshore Biomaterials IVHFIP=0.79 dl/g). The target composition of the other set of microparticles was 70% (w/w) of compound 1 (=compound 14 of WO01/25240) and 30% (w/w) PLGA 50/50 (Lakeshore Biomaterials IVHFIP=0.18 dl/g). This compound 1 has the following structure and will be referred to hereinafter as compound 1:
Approximately 133 mg of the microparticle mixture was introduced into the electrostatically prepared tubes using a spatula.
The prepared tubes were implanted into the subcutaneous space on the back of four male Sprague-Dawley rats weighing between 250-350 grams. The dose of TMC278 was 139 mg/kg and the dose of compound 1 was 64 mg/kg. The tail vein was sampled at pre-determined time points. Blood samples were immediately centrifuged to extract the plasma, plasma was analyzed for compound 1 and TMC278 by LC/MS/MS. The lower limit of quantitation was 0.4 ng/ml and 2 ng/ml for TMC278 and compound 1, respectively.

[3] = In vivo testing of laser drilled melt extruded tube containing two sets of microparticles formulated with F108, plasma concentrations; design: species or system Sprague-Dawley rats; settings: rat, subcutaneous laser drilled extruded tube implant, TMC278 109 mg/kg, compound 1 78 mg/kg, individual animals 1-4
Experimental: The laser drilled melt extruded tube was prepared as described above in example 10. The microparticles were prepared by the spinning disc method using a 3% (w/w) polymer/acetone solution. Two sets of microparticles were prepared. The target composition of one set was 70% (w/w) TMC278, 20% (w/w) PLGA 50/50 (Lakeshore Biomaterials IVHFIP=0.79 dl/g), and 10% (w/w) F108 (BASF). The target composition of the other set of microparticles was 70% (w/w) compound 1, 20% (w/w) PLGA 50/50 (Lakeshore Biomaterials IVHFIP=0.18 dl/g), and 10% (w/w) F108. The F108 was added to the polymer solution.
The size range of the microparticles was determined by randomly selecting a sample of microparticles and placing them on the stage of an optical microscope and using a ruler to measure the various sizes of the microparticles in the randomly selected sample. The size range of the TMC278 and compound 1 microparticles was 10-100 microns and 20-100 microns, respectively. Microparticles were mixed as described in example 9. Approximately 133 mg of the microparticle mixture was introduced into tubes using a spatula to transfer the contents.
The prepared tubes were implanted into the subcutaneous space on the back of four male Sprague-Dawley rats weighing between 250-350 grams. The dose of TMC278 and compound 1 was 109 mg/kg and 78 mg/kg, respectively. The tail vein was sampled at pre-determined time points. Blood samples were immediately centrifuged to extract the plasma, plasma was analyzed for compound 1 and TMC278 by LC/MS/MS. The lower limit of quantitation for TMC278 and compound 1 was 0.4 ng/ml and 2 ng/ml, respectively.

CC(C)CN(C[C@@H](O)[C@H](Cc1ccccc1)NC(=O)O[C@H]1CO[C@H]2OCC[C@H]21)S(=O)(=O)c1ccc2c(c1)OCO2 [compound 1]
plasma concentration ([1]; 3 hour): 2.88 ng/mL and 16.4 ng/mL and 27.0 ng/mL and 16.5 ng/mL | plasma concentration ([1]; 1 day): <2 ng/mL and 4.20 ng/mL and 9.25 ng/mL and 3.71 ng/mL | plasma concentration ([1]; 3 day): <2 ng/ml (2×) and 3.35 ng/ml and 6.06 ng/ml | plasma concentration ([1]; 7 day): 3.44 ng/mL and 3.13 ng/mL and <2 ng/mL | plasma concentration ([1]; 14 day): 2.70 ng/mL and 2.26 ng/mL and 3.66 ng/mL | plasma concentration ([1]; 28 day): <2 ng/mL and 4.32 ng/mL and 13.0 ng/mL and 4.30 ng/mL | plasma concentration ([1]; 35 day): <2 ng/mL and 3.56 ng/mL and 13.0 ng/mL and 2.57 ng/mL | concentration at 7 day ([1]; male, in vivo, 7 day): < 2 ng/mL | concentration at 14 day ([1]; male, in vivo, 14 day): < 2 ng/mL | plasma concentration ([2]; 3 hour): 2.37 ng/mL and 4.08 ng/mL and 4.46 ng/mL | plasma concentration ([2]; 1 day): 12.6 ng/mL and 9.95 ng/mL and 10.5 ng/mL | plasma concentration ([2]; 3 day): 15.1 ng/mL and 14.2 ng/mL and 15.9 ng/mL | plasma concentration ([2]; 7 day): 13.6 ng/mL and 13.2 ng/mL and 13.0 ng/mL | plasma concentration ([2]; 14 day): 7.17 ng/mL and 12.7 ng/mL and 16.6 ng/mL and 9.89 ng/mL | plasma concentration ([2]; 28 day): 6.07 ng/mL and 8.86 ng/mL and 12.4 ng/mL and 10.5 ng/mL | plasma concentration ([2]; 35 day): 5.75 ng/mL and 12.0 ng/mL and 20.0 ng/mL and 11.6 ng/mL | concentration at 3 h ([2]; male, Sprague-Dawley, plasma, subcutaneous, 3 hour): 3.93 ng/mL | concentration at 1 day ([2]; male, Sprague-Dawley, plasma, subcutaneous, 1 day): 6.39 ng/mL | concentration at 3 day ([2]; male, Sprague-Dawley, plasma, subcutaneous, 3 day): 10 ng/mL | concentration at 7 day ([2]; male, Sprague-Dawley, plasma, subcutaneous, 7 day): 9.95 ng/mL | plasma concentration ([3]; 3 hour): 59.1 ng/mL and 26.9 ng/mL and 39.2 ng/mL and 17.3 ng/mL | plasma concentration ([3]; 1 day): 6.13 ng/mL and 2.54 ng/mL and 4.36 ng/mL and 2.98 ng/mL | plasma concentration ([3]; 3 day): <2 ng/mL | plasma concentration ([3]; 7 day): 2.89 ng/ml and <2 ng/ml (2×) | plasma concentration ([3]; 14 day): 8.25 ng/ml and <2 ng/ml (2×) and 6.27 ng/ml | plasma concentration ([3]; 28 day): 22.1 ng/mL and 6.03 ng/mL and 12.3 ng/mL and 16.3 ng/mL | plasma concentration ([3]; 35 day): 13.1 ng/mL and 7.25 ng/mL and 10.7 ng/mL and 15.4 ng/mL | concentration at 3 day ([3]; male, Sprague-Dawley, plasma, 3 day): 3.36 ng/mL | concentration at 7 day ([3]; male, Sprague-Dawley, plasma, 7 day): < 2 ng/mL
